Measurements reported in US11214803B2, “Modulators of YAP1 expression” (Ionis Pharmaceuticals, Inc., priority 2019, dated 2022).
Strand notation (5' to 3'): a small letter for the sugar, then the base; units joined by * are phosphorothioate-linked, units joined directly phosphodiester-linked; [ ] holds rarer units or linkages, { } end groups; capitals alone tell only the bases. k = constrained ethyl (cEt); [5mC] = 5-methylcytosine; d = 2'-deoxy (DNA)

What follows are substances tested on Yap1 mRNA (assay: Antisense inhibition of human Yap1 in A-431 cells by cEt gapmers, single dose (Example 3, RTS36584)). Details: Table 8; A-431 cells, 5,000 cells per well, free uptake, 2,000 nM, approximately 48 hours; RTS36584; normalized to RIBOGREEN; Yap1 mRNA relative to untreated control cells.
Type: cell-based
Outline: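 Human epidermoid A-431 cells take up gapmer (2,000 nM, free uptake, ~48 h); Yap1 transcript is then assayed by qRT-PCR with RiboGreen normalization and reported relative to untreated cells. Gapmers carry cEt-modified wings, phosphorothioate linkages and 5-methylcytosine throughout.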

Substance	YAP1 (% UTC)
958371 (antisense kA*k[5mC]*k[5mC]*dA*dA*d[5mC]*dT*dA*dT*dT*dA*d[5mC]*dT*kT*k[5mC]*kA) [Compound 958371]	2 % UTC
958423 (antisense kG*kA*kT*d[5mC]*dA*dA*d[5mC]*dA*dT*dG*d[5mC]*dT*dA*kA*k[5mC]*kA) [Compound 958423]	51 % UTC
958351 (kT*k[5mC]*kT*d[5mC]*d[5mC]*dG*dA*dG*dT*d[5mC]*d[5mC]*d[5mC]*d[5mC]*kG*k[5mC]*kG; antisense) [Compound 958351]	67 % UTC
958369 (antisense kT*kT*kA*dT*d[5mC]*dT*dA*dG*d[5mC]*dT*dT*dG*dG*kT*kG*kG) [Compound 958369]	4 % UTC
958379 (antisense kG*k[5mC]*kG*d[5mC]*d[5mC]*d[5mC]*dG*d[5mC]*d[5mC]*d[5mC]*dG*d[5mC]*dA*k[5mC]*k[5mC]*kG) [Compound 958379]	124 % UTC
958417 (antisense kA*k[5mC]*kG*dG*dA*dT*dA*dA*dA*dA*dA*dT*dT*kA*k[5mC]*kT) [Compound 958417]	85 % UTC
958360 (antisense kT*k[5mC]*kG*dA*dA*d[5mC]*dA*dT*dG*d[5mC]*dT*dG*dT*kG*kG*kA) [Compound 958360]	12 % UTC
958355 (antisense k[5mC]*kG*kT*dT*dG*dG*d[5mC]*d[5mC]*dG*dT*d[5mC]*dT*dT*kG*kG*kG) [Compound 958355]	51 % UTC

Same assay, conditions: Table 9; A-431 cells, 5,000 cells per well, free uptake, 2,000 nM, approximately 48 hours; RTS36584; normalized to RIBOGREEN; Yap1 mRNA relative to untreated control cells

Substance	YAP1 (% UTC)
958521 (kT*kT*k[5mC]*d[5mC]*dA*dA*dT*dT*d[5mC]*dA*dT*d[5mC]*dA*kG*kA*kT; antisense) [Compound 958521]	14 % UTC

Same assay, conditions: Table 10; A-431 cells, 5,000 cells per well, free uptake, 2,000 nM oligonucleotide, approx. 48 hours; primer probe set RTS36584; Yap1 mRNA normalized to RIBOGREEN, percent of untreated control

Substance	YAP1 (% UTC)
958572 (kA*kT*kT*dA*dT*dA*dG*dG*d[5mC]*dA*d[5mC]*dT*d[5mC]*k[5mC]*kT*kT; antisense) [Compound 958572]	5 % UTC
958522 (kA*kA*kT*dT*dA*dG*dT*d[5mC]*d[5mC]*dA*dA*dG*dG*kG*kA*kG; antisense) [Compound 958522]	32 % UTC
958532 (kG*kA*kA*dG*dT*dA*dG*dG*dA*dG*d[5mC]*dA*dA*kG*kT*k[5mC]; antisense) [Compound 958532]	2 % UTC
958612 (antisense kA*k[5mC]*k[5mC]*dT*dA*dA*d[5mC]*dA*dT*dA*dT*dG*dA*kG*k[5mC]*kA) [Compound 958612]	18 % UTC
958652 (kG*k[5mC]*kT*dA*d[5mC]*dG*dA*d[5mC]*dG*dG*d[5mC]*dT*dG*kG*k[5mC]*k[5mC]; antisense) [Compound 958652]	136 % UTC

Same assay, conditions: Table 11; A-431 cells, 5,000 cells per well, free uptake, 2,000 nM oligonucleotide, approx. 48 hours; primer probe set RTS36584; Yap1 mRNA normalized to RIBOGREEN, percent of untreated control

Substance	YAP1 (% UTC)
958553 (k[5mC]*k[5mC]*kA*dT*dT*dA*dT*dT*dA*d[5mC]*dT*d[5mC]*d[5mC]*kT*kG*kT; antisense) [Compound 958553]	1 % UTC
958633 (antisense kT*kG*kT*d[5mC]*dA*dT*d[5mC]*dA*dG*dG*dT*dT*dA*kA*kG*kT) [Compound 958633]	76 % UTC
958773 (antisense kA*kG*k[5mC]*dT*dG*dG*dT*dA*dG*dG*dG*d[5mC]*dA*kA*kG*kA) [Compound 958773]	43 % UTC

Same assay, conditions: Table 12; A-431 cells, 5,000 cells per well, free uptake, 2,000 nM modified oligonucleotide, approx. 48 hours; RTS36584; normalized to RIBOGREEN; Yap1 mRNA relative to untreated control cells

Substance	YAP1 (% UTC)
958624 (antisense kG*kG*kG*dA*dT*dT*dG*dA*dT*dA*dT*dT*d[5mC]*k[5mC]*kG*k[5mC]) [Compound 958624]	74 % UTC

Same assay, conditions: Table 13; A-431 cells, 5,000 cells per well, free uptake, 2,000 nM modified oligonucleotide, approx. 48 hours; RTS36584; normalized to RIBOGREEN; Yap1 mRNA relative to untreated control cells

Substance	YAP1 (% UTC)
958700 (antisense k[5mC]*kT*kA*dA*dT*dA*dT*dA*dG*dA*d[5mC]*dT*dA*k[5mC]*kT*k[5mC]) [Compound 958700]	55 % UTC
958585 (k[5mC]*kT*k[5mC]*dT*dA*dT*d[5mC]*dA*dA*dG*dG*dT*d[5mC]*k[5mC]*k[5mC]*k[5mC]; antisense) [Compound 958585]	5 % UTC
958805 (k[5mC]*kA*kA*dG*dA*dT*dA*dA*dT*d[5mC]*dA*dT*d[5mC]*k[5mC]*kT*k[5mC]; antisense) [Compound 958805]	6 % UTC

Same assay, conditions: Table 26; Yap1 mRNA by 3-10-3 cEt gapmers targeting SEQ ID NO.: 1, and 2; percent of untreated control

Substance	YAP1 (% UTC)
1074188 (antisense kG*k[5mC]*kT*dG*d[5mC]*dG*dA*dA*dG*dG*d[5mC]*dG*dG*k[5mC]*kT*kG) [compound 1074188]	113 % UTC
1075788 (kT*k[5mC]*kT*dT*dA*dA*dG*dG*dA*dT*dT*dG*dG*k[5mC]*kT*kA; antisense) [compound 1075788]	15 % UTC
1075148 (k[5mC]*kG*kG*dA*dA*dA*dA*dA*dA*d[5mC]*dA*d[5mC]*d[5mC]*kT*kA*kG; antisense) [compound 1075148]	66 % UTC
1075564 (kA*kT*kA*dT*dA*dA*d[5mC]*dA*dG*dG*d[5mC]*d[5mC]*dA*k[5mC]*k[5mC]*kA; antisense) [compound 1075564]	81 % UTC
1074636 (antisense kA*kT*k[5mC]*dT*dA*dT*d[5mC]*dT*dT*d[5mC]*d[5mC]*d[5mC]*dA*kA*kG*k[5mC]) [compound 1074636]	56 % UTC
1074572 (DNA kT*kT*kA*dT*dG*dA*dA*d[5mC]*d[5mC]*dT*dA*d[5mC]*dT*k[5mC]*kA*k[5mC]) [compound 1074572]	17 % UTC
1076140 (kA*k[5mC]*kG*dA*dA*dA*dA*dA*dA*dG*d[5mC]*d[5mC]*dA*kA*k[5mC]*kA; antisense) [compound 1076140]	28 % UTC

Same assay, conditions: Table 27; Yap1 mRNA by 3-10-3 cEt gapmers targeting SEQ ID NO.: 1, and 2; percent of untreated control

Substance	YAP1 (% UTC)
1074989 (antisense kG*kA*kG*dG*dG*dA*dA*dA*dG*d[5mC]*dA*d[5mC]*dG*k[5mC]*k[5mC]*k[5mC]) [compound 1074989]	105 % UTC
1075309 (antisense kT*kA*kA*dT*dT*dA*dA*dA*d[5mC]*dG*dA*dA*dA*k[5mC]*kA*k[5mC]) [compound 1075309]	110 % UTC
1076493 (kT*kG*kA*d[5mC]*dA*dA*dT*dA*dA*dG*dG*dG*dA*k[5mC]*kA*kA; antisense) [compound 1076493]	34 % UTC

Same assay, conditions: Table 28; Yap1 mRNA as percent of untreated control; 3-10-3 cEt gapmers targeting SEQ ID NO.: 1, and 2

Substance	YAP1 (% UTC)
1076398 (antisense k[5mC]*kT*kT*dG*dA*dA*dG*dG*dG*d[5mC]*dT*dA*dT*kG*kG*kA) [compound 1076398]	62 % UTC
1075918 (antisense k[5mC]*kT*kT*dA*dA*dA*d[5mC]*dT*dA*dA*d[5mC]*dT*dG*kT*kT*kG) [compound 1075918]	82 % UTC
1076142 (kA*kT*kA*d[5mC]*dG*dA*dA*dA*dA*dA*dA*dG*d[5mC]*k[5mC]*kA*kA; antisense) [compound 1076142]	38 % UTC
1075406 (antisense kA*k[5mC]*kT*dA*dT*dA*dT*dA*dA*d[5mC]*d[5mC]*dT*dG*kA*kA*k[5mC]) [compound 1075406]	99 % UTC
1074574 (DNA k[5mC]*kA*kT*dT*dA*dT*dG*dA*dA*d[5mC]*d[5mC]*dT*dA*k[5mC]*kT*k[5mC]) [compound 1074574]	17 % UTC

Same assay, conditions: Table 29; Yap1 mRNA as percent of untreated control; 3-10-3 cEt gapmers targeting SEQ ID NO.: 1, and 2

Substance	YAP1 (% UTC)
1076271 (k[5mC]*kG*kG*d[5mC]*dA*dA*d[5mC]*dA*dA*d[5mC]*dA*dA*dA*kA*kT*kG; antisense) [compound 1076271]	18 % UTC
1074991 (antisense kA*kA*kT*dT*dA*dT*dT*dT*dG*dA*d[5mC]*dT*d[5mC]*k[5mC]*k[5mC]*k[5mC]) [compound 1074991]	60 % UTC

Same assay, conditions: Table 34; Yap1 mRNA as percent of untreated control; 3-10-3 cEt gapmers targeting SEQ ID NO: 1 and 2; single dose

Substance	YAP1 (% UTC)
1076244 (k[5mC]*kA*kA*dT*dT*dT*dG*dG*dG*dA*dT*dA*dT*kT*k[5mC]*kG; antisense) [compound 1076244]	14 % UTC
1074292 (antisense k[5mC]*kT*kG*dT*dT*dT*d[5mC]*dA*d[5mC]*dT*dG*dG*dA*kG*k[5mC]*kA) [compound 1074292]	10 % UTC
1075860 (antisense kA*kA*k[5mC]*dT*dA*dT*dA*dA*dG*d[5mC]*dT*dA*dT*kG*kT*kG) [compound 1075860]	73 % UTC
1074932 (antisense kG*kG*kA*dG*dA*d[5mC]*dT*dA*dT*dA*d[5mC]*dA*dA*k[5mC]*kA*kG) [compound 1074932]	88 % UTC
1076500 (k[5mC]*kA*kA*dT*dT*dA*dA*dG*dA*dT*d[5mC]*dA*dA*k[5mC]*kA*kT; antisense) [compound 1076500]	99 % UTC

Same assay, conditions: Table 35; Yap1 mRNA as percent of untreated control; 3-10-3 cEt gapmers targeting SEQ ID NO: 1 and 2; single dose

Substance	YAP1 (% UTC)
1074389 (kG*k[5mC]*kA*dG*dA*d[5mC]*dT*dT*dG*dG*d[5mC]*dA*dT*k[5mC]*kA*kG; antisense) [compound 1074389]	14 % UTC
1076213 (kT*k[5mC]*kT*d[5mC]*dA*dA*dG*dG*dA*dA*dT*dT*dG*k[5mC]*k[5mC]*kT; antisense) [compound 1076213]	27 % UTC
1075861 (antisense kT*kA*kA*d[5mC]*dT*dA*dT*dA*dA*dG*d[5mC]*dT*dA*kT*kG*kT) [compound 1075861]	78 % UTC
